≈ marks a conversion by molar mass, not a printed value. Where “and” joins values, the source holds several entries; their conditions need not be identical. Identical values can stand only once. Marks after values point to notes of the source that are not given here.
Legend:
MRSA-2 biofilms [1] = test: Biofilm eradication assay (MBEC); assay type: cell-based, Staphylococcus aureus; settings: for Biofilm Eradication MBEC: MRSA-2
Description: Biofilm eradication assays. […] The protocol for the biofilm eradication assays was essentially the same as the protocols reported in Eun et al., J. Am. Chem. Soc., 2012, 134, 11322 and Ceri et al., J. Clin. Microbiol., 1999, 37, 1771. Biofilm eradication assays were essentially biofilm dispersion assays with the addition of a final treatment with fresh media (and incubation at 37° C. for 24 hours) instead of crystal violet staining. This final incubation allowed viable cells within the biofilm to grow. At the end of this final incubation in biofilm eradication assays, microtiter wells void of turbidity represented eradicated biofilms, and the lowest concentration at which no visible growth was observed was referred to as the minimum biofilm eradication concentration (MBEC). Potent biofilm eradicating small molecules are extremely rare (Fletcher et al., Tetrahedron, 2014, 70, 6373; Jennings et al., ChemBioChem, 2014, 15, 2211). For these experiments, MRSA-2 was selected as the model since MRSA-2 is a multidrug-resistant, biofilm-forming clinical isolate of Staphylococcus aureus (Priyaja et al., Cytotechnol., 2014, doi: 10.1007/s10616-014-9765-5).

[2] = tested on: Staphylococcus epidermidis (ATCC 12228); test: MIC broth microdilution (CLSI), Luria Broth; assay type: cell-based; settings: for MIC: ATCC12228, Table 1, ATCC 12228, read-out: Staphylococcus epidermidis MIC; for fold more potent than compound 1: from MIC
Method in brief: (§1)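 Two-fold serial dilutions (0.10–100 μM, eleven points) in Luria Broth, each well inoculated with 10^5 cells from log-phase culture (OD600 0.5), per CLSI broth microdilution. DMSO vehicle up to 1% v/v as negative control; kanamycin positive control for the staphylococci.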

[3] = Hydrolysis stability in sterile water; assay type: physicochemical; settings: 24 hours at 37° C., static, TLC and NMR
Description: Compound storage. Solid stocks of the compounds described herein were stored at −80° C. in vials sealed with PARAFILM. Between 2.0 and 4.5 milligrams of each compound was weighed out, and a 10 mM DMSO stock solution of each compound were prepared. DMSO stock solutions were stored at room temperature in the dark (e.g., wrapped in aluminum foil). At this concentration, a few compounds required gentle heating to completely solubilize. DMSO stock solutions were not subjected to any freeze-thaw cycles to prevent compound breakdown. The compounds were stable in DMSO for several weeks under these mild storage conditions, with the exception of pyocyanin. Pyocyanin is unstable in DMSO at room temperature after one day. […] DMSO stock solutions of about 2 milligrams of pyocyanin were made fresh each day. The hydrolysis stability of select compounds was also tested, e.g., by subjecting these compounds to conditions mimicking the biofilm assays described herein. In one set of exemplary experiments, 3.2 to 4.5 mgs of each of compounds 18a, 12a, 23a, and 21 were treated with 1 mL of sterile water to form a mixture. Each of the mixtures was allowed to be incubated for 24 hours at 37° C. under static conditions analogous to the S. aureus biofilm inhibition assays described herein. After 24 hours, each of the mixtures was extracted with dichloromethane and evaluated, using TLC and NMR, for hydrolysis of each of compounds 18a, 12a, 23a, and 21 to compound 11.

[4] = tested on: Pseudomonas aeruginosa (PAO1); test: MIC broth microdilution (CLSI), Luria Broth; assay type: cell-based; settings: Table 1, PAO1, read-out: Pseudomonas aeruginosa MIC
Method in brief: as §1

MRSA-2 biofilms [5] = test: MRSA-2 biofilm dispersion assay; assay type: cell-based; settings: Staphylococcus aureus, 24 h, read-out: MRSA-2 biofilm dispersion EC50
MRSA-2 = test: MIC against MRSA-2; assay type: cell-based; settings: Staphylococcus aureus, read-out: MIC against MRSA-2
Description: Antibiotic Susceptibility Tests (MIC Assay Protocol). The minimum inhibitory concentration (MIC) for each compound described herein was determined by the broth microdilution method as recommended by the Clinical and Laboratory Standards Institute (CLSI) (Clinical and Laboratory Standards Institute. 2009. Methods for dilution antimicrobial susceptibility tests for bacteria that grow aerobically; approved standard, eighth edition (M7-A8)). In a 96-well plate, eleven two-fold serial dilutions of each compound were made in a final volume of 100 μL Luria Broth (one column served as a blank; see the MIC assay described herein). Each well was inoculated with 10^5 bacterial cells at the initial time of incubation, prepared from a fresh log phase culture (OD600 of 0.5). […] The concentration range tested for each compound during this study was 0.10 to 100 μM. DMSO served as the vehicle and negative control in each microdilution MIC assay. DMSO was serially diluted at the same concentration as the compounds with a top concentration of 1% v/v. Bacterial strains used: Staphylococcus aureus (ATCC 25923), Staphylococcus epidermidis (ATCC 12228) and Pseudomonas aeruginosa (PAO1). […]
Vancomycin's activity against MRSA-2. Vancomycin was also evaluated against MRSA-2 since vancomycin has been considered to be the drug of last resort against MRSA infections.

| Compound | Biofilm Eradication MBEC (MRSA-2 biofilms [1]) | MIC [2] | stability to hydrolysis (to compound 11) [3] | other results |
| --- | --- | --- | --- | --- |
| CCC(=O)Oc1c(Br)cc(Br)c2nc3ccccc3nc12 [Compound 4a] | 125 µM |  |  |  |
| O=C(Oc1c(Br)cc(Br)c2nc3ccccc3nc12)c1ccccc1 [Compound 23, 2,4-Dibromophenazin-1-yl benzoate] |  | 1.56 µM and 0.72 µg/mL |  |  |
| Cc1ccc(C(=O)Oc2c(Br)cc(Br)c3nc4ccccc4nc23)cc1 [Compound 18a] |  |  | stable to hydrolysis |  |
| CC(=O)Oc1c(Br)cc(Br)c2nc3ccccc3nc12 [Compound 21, 2,4-Dibromophenazin-1-yl acetate] |  | 0.78 µM and 0.31 µg/mL | stable to hydrolysis | fold more potent than compound 1 [2]: 64 fold |
| O=C(Oc1c(Br)cc(Br)c2nc3ccccc3nc12)c1ccco1 [Compound 23a] | 62.5 to 100 µM |  | stable to hydrolysis |  |
| O=C(Oc1c(Br)cc(Br)c2nc3ccccc3nc12)c1ccc(Br)cc1 [Compound 12a] |  |  | stable to hydrolysis |  |
| O=C(OCC(Cl)(Cl)Cl)Oc1c(Br)cc(Br)c2nc3ccccc3nc12 [Compound 27a] | 125 µM |  |  |  |
| Oc1c(Br)cc(Br)c2nc3ccccc3nc12 [Compound 11, 2,4-Dibromophenazin-1-ol] | 100-200^c μM | 0.78 µM to 1.56 µM and 0.28 µg/mL to 0.55 µg/mL |  | MIC [4]: > 100 µM; fold more potent than compound 1 [2]: 32 fold; MBEC:MIC ratio (MRSA-2 biofilms [1]; MRSA-2 biofilm vs planktonic): 64-128; EC50 (MRSA-2 biofilms [5]): 3.53 µM; MIC (MRSA-2): 1.56 µM (≈ 0.552 µg/mL) |

Source: US9856225B2, “Substituted phenazines as antimicrobial agents” (University of Florida Research Foundation, Incorporated, priority 2013, dated 2018)
